According to patent publication US20190084939A1, “ANALOGS OF FEXARAMINE AND METHODS OF MAKING AND USING” (Salk Institute for Biological Studies, priority 2014, published 2019):
“Also recorded” adds a separate entry of the source.

Tests used:
ob/ob mice = assay: fexaramine and deuterated analogs in ob/ob mice, 2 weeks; type: in vivo; settings: 2 weeks at 50 mg/kg PO
Description: An in vivo study of fexaramine and selectively-deuterated fexaramine compounds (FIG. 29A) was performed. Briefly, ob/ob mice were treated daily with vehicle, Fex, or deuterated analogs (50 mg kg^−1) by oral (PO) gavage for 2 weeks. Subsequently, body weight, body temperature, fasting blood glucose and insulin levels, insulin secretion, and GLP1 section were measured, and glucose tolerance tests (GTTs) performed.

DIO mice = assay: hyperinsulinemic-euglycemic clamp in DIO mice; type: in vivo
Description: FIGS. 15I-15K are a line graph and two bar graphs showing the effect of fexaramine treatment on body weight, insulin-stimulated GDR, and fasting insulin levels. Mice were fed HFD for 14 weeks, and then administered daily oral injections of vehicle or fexaramine (100 mg/kg) for 3 weeks with HFD. The mice treated with fexaramine were initially heavier (by 2-3 grams). Three weeks after treatment, a clamp study was performed on the mice. Data represent the mean±STD. Statistical analysis was performed with the Student's t test (*p<0.05, **p<0.01).

[1] = system: FXR target gene expression; assay: FXR target gene expression (qPCR) in tissues after PO or IP fexaramine; type: in vivo, C57BL/6J mice; settings: for FXR target gene (SHP) expression in liver and kidney, IP versus PO / FXR target genes (IBABP, OSTα, FGF15) in the intestine / FXR target genes in liver or kidney: 100 mg/kg; for FXR target genes (IBABP, OSTα, FGF15) in the intestine / FXR target genes in liver or kidney: PO
Description: FIGS. 1A-1C are a comparative expression chart and two bar charts, respectively, illustrating increased levels of FXR target gene expression in the intestine relative to expression in the liver and kidney. 8 week-old C57BL/6J mice were treated with vehicle or fexaramine (100 mg/kg) via oral (PO) or intraperitoneal (IP) injection for three days (FIGS. 1A-1B) or five days (FIG. 1C).
FXR target gene expression was analyzed by qPCR. Gene expression was normalized against a vehicle-treated group.
Upon exploration of the in vivo effects of fexaramine (Fex) administration, it was discovered that due to ineffectual absorption, oral (PO) and intraperitoneal (IP) drug delivery produced very different effects (FIGS. 1D and 1E).

ApcMin/+ mice = assay: ApcMin/+ colon cancer mouse model; type: in vivo
Description: The farnesoid X receptor (FXR) is a bile acid activated nuclear receptor widely expressed through the body. The ability of the intestinal-specific FXR ligand fexaramine to inhibit the progression of colon cancer in mice with a heterozygote mutation for the Apc gene (ApcMin/+ mice on a C57B6 background obtained from Jackson Laboratories) was determined.
5 week old ApcMin/+ mice (13-15 males per group receiving a standard diet, a model for colorectal and intestinal cancer) were treated with vehicle (corn oil) or fexaramine (FEX, 100 mg/kg in corn oil) by oral gavage, three times a week for 23 weeks. Mice body weight and food-intake were measured daily. At the end of the treatment regimen, surviving animals were sacrificed by cervical dislocation and the entire intestinal tract was immediately removed and washed with cold phosphate-buffered saline.
At the completion of the treatment, the colons were removed, flushed with PBS, fixed as “Swiss-rolls” in 4% paraformaldehyde at 4° C. overnight, and paraffin-embedded. Sections (5 μm) were cut stepwise (200 μm) through the complete block and stained with H&E. Tumor counts were performed blinded by a trained pathologist. To determine proliferation rates, mice were injected i.p. with 100 mg/kg of BrdU 2.5 hours prior to sacrifice and paraffin sections stained using a BrdU-in situ detection kit. The extent of apoptosis was determined by TUNEL assay using the ApoAlert DNA fragmentation assay kit. BrdU- and TUNEL-positive cells were counted by an investigator blinded to the genotype. For immunohistochemistry, antigen retrieval was performed (Vector Lab H3300) and then RTU Vectastain Universal Elite ABC Kit and NovaRED or VIP substrate (all from Vector Lab) were used, following the manufacturer's instructions.
Statistical analysis were performed in collaboration with the Cancer Prevention-Biostatistics department at the University of California at San Diego Cancer Center. This is part of an ongoing collaboration and has previously been applied to the APC^Min model of colorectal cancer as well as to several other cancer models including prostate and breast cancer. The volume of polyps was calculated considering them as hemispheres (½×[…] π r^3). All other evaluations were performed in the distal tract of the small intestine because ApcMin/+ mice develop the majority of tumors in the small intestine.

human L cells = assay: oxygen consumption rate of intestinal L cells (Seahorse analyzer); type: cell-based; settings: fexaramine 1 μM for 24 hours
Description: FIG. 41 is a graph showing the effects of modulating FXR activity on the oxidative metabolism of intestinal L cells. L cells were treated with the FXR agonist fexaramine, the FXR antagonist Guggulsterone, or a combination of both, prior to measurement of their oxygen consumption rate (OCR) in a Seahorse analyzer.
To examine the effects of FXR in the secretion of GLP-1, the metabolic changes induced in human L cells was measured by treatment with the FXR agonist, fexaramine and an FXR antagonist guggulsterone. Treatment of L cells with fexaramine (1 μM for 24 hours) lead to an increase in the oxygen consumption rate (OCR), consistent with increased mitochondrial activity and consequently, an increased energetic state (FIG. 41). The reverse effect was seen after treatment with the FXR antagonist, guggulsterone, with lower OCR after drug treatment.

Structure (SMILES): COC(=O)/C=C/c1cccc(N(Cc2ccc(-c3ccc(N(C)C)cc3)cc2)C(=O)C2CCCCC2)c1 [Fexaramine, fexaramine]
- body weight (ob/ob mice): do not affect body weight
- core body temperature (ob/ob mice): did increase core body temperature
- fasting blood glucose levels (ob/ob mice): does not significantly affect
- insulin-mediated suppression of HGP (DIO mice; versus control DIO mice): marked increase
- basal HGP, GDR, IS-GDR, FFA suppression and fasting insulin levels (DIO mice; weight-matched cohorts): No differences
- FXR target gene (SHP) expression in liver and kidney, IP versus PO [1]: increases
- FXR target gene (SHP) expression in liver and kidney, IP versus PO ([1]; listed as Fex): only seen in liver and kidney after IP treatment
- FXR target genes (IBABP, OSTα, FGF15) in the intestine [1]: substantially enhances
- FXR target genes in liver or kidney [1]: intestinally-restricted; also recorded: not in the liver or kidney
- FXR target genes (IBABP, OSTα, FGF15) in the intestine ([1]; listed as Fex): induced multiple FXR target genes in the intestine
- FXR target genes in liver or kidney ([1]; listed as Fex): failed to affect
- induction of FXR target gene SHP throughout the intestine ([1]; acute PO and IP, 100 mg/kg for five days): robust induction
- colon cancer-induced cachexia (weight loss) (ApcMin/+ mice; 100 mg/kg oral gavage three times a week): resistant to colon cancer-induced cachexia
- serum total cholesterol and triglyceride levels (ApcMin/+ mice; after 23 weeks): reduces circulating triglycerides; also recorded: reduced
- tumor size in duodenum, jejunum, ileum and throughout the intestine (ApcMin/+ mice; after 23 weeks): dramatic reduction in tumor size
- tumors in colon sections (ApcMin/+ mice; after 23 weeks): No tumors were observed
- reduction in total tumor burden versus vehicle (ApcMin/+ mice; after 23 weeks, p 0.04): 20%
- reduction in tumor burden in the ileum (ApcMin/+ mice; after 23 weeks, p 0.08): 25%
- reduction in tumor burden in the jejunum (ApcMin/+ mice; after 23 weeks, p 0.08): 11.75%
- tumor burden in the duodenum (ApcMin/+ mice; after 23 weeks, p 0.73): no change in tumor burden
- survival at 25 weeks (ApcMin/+ mice; vehicle 20%): 80%
- body weight change (ApcMin/+ mice; vehicle-treated mice lose ˜10%): maintain their weight
- oxygen consumption rate (OCR) (human L cells): increase
